Entries after “also recorded” stand apart in the source; their conditions may differ. Where two headings read alike, the source gives them in different places.
Columns and labels:
[1] = in vitro relaxivity (r1), Bruker Minispect; assay type: physicochemical
Experimental: Relaxation time (T1) of Mann2-DTPA-Gd/MannGdFish at concentrations of 0.1, 0.2, 0.3, 0.5, 0.6, 0.75, and 1 mM in PBS was measured on the Bruker Minispect (Bruker Analytics, MA) at 0.47 T (20 MHz) at 40° C. The slope value of the linear function of 1/T1 (s) to their corresponding concentrations is defined as the relaxivity (n=3 for each concentration).

[2] = system: M1/M2 macrophages and HEK293 cells; assay: ICP-MS of gadolinium on cells incubated with agent; assay type: cell-based
Experimental: M1 and M2 differentiated macrophages were incubated with 1 mM of Mann2-DTPA-Gd for 1 h at 4° C. After washing with PBS (×3), cells were collected, digested with nitric acid (70%, 200 μL) overnight and subjected to ICP-MS to detect the amount of Gd.
M1 and M2 polarized differentiation. Raw 264.7 cells (Passage 8 from the cell core of center for Systems Biology at Massachusetts General Hospital, Boston) in 10 mL petri dishes were cultured with Dulbecco's modified eagle medium with high glucose (DMEM, Thermo Fisher Scientific, NY, USA) containing 10% of fetal bovine serum (FBS, Sigma-Aldrich, MO, USA) and 0.5% streptomycin/penicillin (Cellgro) until reaching 80% of confluency. Then differentiating media containing IFN-gamma (100 ng/ml the above medium) for M1 polarization and IL-4 (100 ng/mL) for M2 polarization were added to the dishes, respectively. After 24 h, the M1 and M2 polarized macrophages were ready for the following experiments.

CD206+ macrophages [3] = assay: MR imaging in mouse model of cutaneous wound healing; assay type: in vivo
Experimental: Eight-to nine-week-old C57BL/6J female mice were used for MRI of wound healing and glioma (Jackson Laboratory, ME). The generation of wound healing and glioma is described in Examples 14 and 15, respectively. The mice with subcutaneous wounds were imaged on days 1, 4, and 7 longitudinally or on day 7. Mice with glioma were imaged on the third week. All the mice were imaged pre- and at 0, 15, 30, 45 and 60 min after 0.3 mmol/kg of Mann2-DTPA-Gd or MannGdFish was administered intravenously via a tail vein using serial T1 rapid acquisition with relaxation enhancement (RARE) sequence (TR: 935.77 ms, TE: 13.59 ms, averages: 12, rare factor: 4, 256×256×48 matrix size, 0.156×0.156×1 mm^3 voxel size) with chemical fat suppression using a Hermitian pulse shape with an 8.253 ms pulse and 701.19 Hz bandwidth 3.5 ppm down from the water peak and respiratory gating on a 4.7 T small animal MR scanner (Bruker, Cambridge, MA) with a 3 cm quadrature volume coil (Rapid MR International, Germany). Regions of interest (ROIs) were drawn and the contrast-to-noise ratios (CNRs, CNRpre-contrast subtracted) were calculated by a radiologist with over 20 years of experience blinded to the identity of the imaging agent used and the strain of the mice (n=3 per group).
Wound healing procedure. Seven-to ten-week-old C57BL/6J female mice (The Jackson Laboratories, ME) and mannose-receptor deficient mice were used in this study. A circular outline on the back of a mouse was made with a 4 mm biopsy punch (Kai Medical, Japan) under anesthesia using isoflurane. Then a full-thickness excisional wound was generated that extended through the subcutaneous tissue. A silicone splint was glued over the wound, anchored with 6-0 nylon sutures, and covered with a transparent occlusive dressing (OpSite). Xylazine/norepinephrine (100 μL) were intraperitoneally injected twice a day for two days and the mice were monitored daily.

CD206+ TAMs = assay: MR imaging of experimental glioma; assay type: in vivo, mouse; conditions: third week, 30 and 60 min post-injection
Experimental: Eight-to nine-week-old C57BL/6J female mice were used for MRI of wound healing and glioma (Jackson Laboratory, ME). The generation of wound healing and glioma is described in Examples 14 and 15, respectively. The mice with subcutaneous wounds were imaged on days 1, 4, and 7 longitudinally or on day 7. Mice with glioma were imaged on the third week. […] Regions of interest (ROIs) were drawn and the contrast-to-noise ratios (CNRs, CNRpre-contrast subtracted) were calculated by a radiologist with over 20 years of experience blinded to the identity of the imaging agent used and the strain of the mice (n=3 per group). […]
Eight- to nine-week-old C57BL/6J female mice were used in this experiment (Jackson laboratory, ME). […] The mice then were monitored daily for signs of discomfort or neurological symptoms.

CD206+ macrophages [4] = assay: MR imaging in mouse model of cutaneous wound healing; assay type: in vivo; conditions: 45-75 min post-injection, wildtype mice

- relaxivity (r1) [1]: 3.6 mmol⁻¹ s⁻¹
- relaxivity (r1) ([1]; in PBS, 0.47 T, 40° C.): 3.6 mM⁻¹ s⁻¹
SMILES: O=C([O-])CN(CCN(CC(=O)[O-])CC(=O)NC1C(O)OC(CO)C(O)C1O)CCN(CC(=O)[O-])CC(=O)NC1C(O)OC(CO)C(O)C1O.[Gd+3] (stereo not drawn) [Mann2-DTPA-Gd]
- amount of gadolinium on M2 macrophages versus M1 macrophages and HEK293 cells [2]: much higher than that on M1 macrophages and HEK293 cells; also recorded: markedly higher than that in M1 macrophages and HEK293 cells
- CNR on day 7 compared to day 4 (CD206+ macrophages [3]; 45 min post-injection, wildtype mouse): about two-fold
- CNR on day 7 versus days 1 and 4 (CD206+ macrophages [3]; 60 min post-injection, longitudinal imaging): much higher compared to that on days 1 and 4
- signal intensity / CNR time course (CD206+ macrophages [3]; mannose receptor-knockout mice, day 7, 0.3 mmol/kg): decreased significantly after 15 min post-injection compared to that in wildtype mice; also recorded: decreased over time after initially peaking at 15 min post-injection
- contrast-to-noise ratio (CNR) time course (CD206+ macrophages [3]; wildtype mice, day 7 after wound induction): increasing over time until 45 min post-injection prior to slowly decreasing; also recorded: slow decrease of CNR
- contrast enhancement of glioma (CD206+ TAMs): Substantial contrast enhancement
- CNR on day 7 compared to day 4 (CD206+ macrophages [4]): 2- to 3 fold

From patent US20260183432A1, “IMAGING AGENTS FOR DETECTING CD206+ MACROPHAGES” (THE GENERAL HOSPITAL CORPORATION, priority 2022, published 2026)
